Data from ChEMBL document CHEMBL1201862, “PubChem BioAssay data set” (2004).
Active and inactive are the calls of the source.

Tests used:
[1] = biological target: T1, Orexin/Hypocretin receptor type 1 (Homo sapiens, UniProt O43613); assay: Homogeneous Time Resolved Fluorescence (HTRF)-based cell-based high throughput dose response assay for antagonists of the orexin 1 receptor (OX1R; HCRTR1). [Related pubchem assays (depositor defined):AID434989, AID435008, AID463079, AID485270, AID492963, AID492964, AID492965, AID493232, AID504717, AID504718]; type: functional
T1 sequence (O43613 whole entry): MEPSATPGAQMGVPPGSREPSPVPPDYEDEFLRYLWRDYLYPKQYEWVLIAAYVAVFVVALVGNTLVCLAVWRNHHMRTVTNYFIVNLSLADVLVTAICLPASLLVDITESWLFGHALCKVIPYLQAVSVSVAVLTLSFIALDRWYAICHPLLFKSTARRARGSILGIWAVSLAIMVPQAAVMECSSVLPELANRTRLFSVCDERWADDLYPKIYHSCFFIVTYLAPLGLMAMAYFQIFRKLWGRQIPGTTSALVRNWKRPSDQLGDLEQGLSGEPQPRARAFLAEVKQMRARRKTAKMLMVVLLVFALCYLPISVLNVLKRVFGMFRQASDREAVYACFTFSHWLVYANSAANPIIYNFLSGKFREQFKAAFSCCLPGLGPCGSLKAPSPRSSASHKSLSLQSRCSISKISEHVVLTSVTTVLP

[2] = biological target: T1, Orexin/Hypocretin receptor type 1; assay: Fluorescence-based cell-based high throughput dose response assay for antagonists of the orexin 1 receptor (OX1R; HCRTR1). [Related pubchem assays (depositor defined):AID434989, AID435008, AID463079, AID485270, AID492963, AID492964, AID492965, AID493232, AID504717, AID504718]; type: functional
[3] = (§1) Counterscreen for antagonists of the orexin 1 receptor (OX1R; HCRTR1): Fluorescence-based cell-based high throughput dose response assay to identify antagonists of the parental CHO cell line. [Related pubchem assays (depositor defined):AID434989, AID435008, AID463079, AID485270, AID492963, AID492964, AID492965, AID493232, AID504699, AID504701]; type: functional
CHO-K1 = assay: as §1, with “Homogeneous time resolved fluorescence (HTRF)-based” for “Fluorescence-based”, “cell-based” for “cell-based high throughput”, “CHO-K1” for “CHO”; type: functional; details: Cricetulus griseus;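 also: potency for inhibition of ATP-stimulated IP1 production as antagonists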
[4] = biological target: Arf-GAP with SH3 domain, ANK repeat and PH domain-containing protein 1 (Homo sapiens, UniProt Q9ULH1); type: functional;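 also: biochemical fluorescence polarization dose–response screen measuring inhibition of ASAP1; ASAP1 GAP domain stimulating GTP hydrolysis by truncated human ARF1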
[5] = biological target: ADP-ribosylation factor GTPase-activating protein 1 (Rattus norvegicus, UniProt Q62848); assay: Fluorescence polarization-based biochemical high throughput dose response screening assay to identify inhibitors of ADP-ribosylation factor GTPase activating protein 1 (ARFGAP1).; type: functional
X-box-binding protein 1 = X-box-binding protein 1 (Homo sapiens, UniProt P17861); type: functional, Cricetulus griseus;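 also: confirmatory dose-response counter-screen serving a CHOP assay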
[6] = biological target: DNA damage-inducible transcript 3 protein (Mus musculus, UniProt P35639); type: functional, Cricetulus griseus
[7] = biological target: DNA dC->dU-editing enzyme APOBEC-3G (Homo sapiens, UniProt Q9HC16); type: functional;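 also: Dose-response counterscreen measuring inhibition of APOBEC3G DNA deaminase activity, run while confirming APOBEC3A inhibitors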
[8] = biological target: DNA dC->dU-editing enzyme APOBEC-3A (Homo sapiens, UniProt P31941); assay: Dose Response confirmation of small molecule APOBEC3A DNA Deaminase Inhibitors via a fluorescence-based single-stranded DNA deaminase assay. [Related pubchem assays (depositor defined):AID493011, AID493024]; type: functional
Sequence of DNA dC->dU-editing enzyme APOBEC-3A (P31941 whole entry): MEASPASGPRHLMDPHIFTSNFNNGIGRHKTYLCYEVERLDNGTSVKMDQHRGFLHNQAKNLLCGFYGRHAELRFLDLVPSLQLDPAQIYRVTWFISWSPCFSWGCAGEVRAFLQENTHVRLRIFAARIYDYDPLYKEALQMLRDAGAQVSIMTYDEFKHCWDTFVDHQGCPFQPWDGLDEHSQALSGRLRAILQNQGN

Sequence of Arf-GAP with SH3 domain, ANK repeat and PH domain-containing protein 1 (Q9ULH1 whole entry, the tested form may be a part): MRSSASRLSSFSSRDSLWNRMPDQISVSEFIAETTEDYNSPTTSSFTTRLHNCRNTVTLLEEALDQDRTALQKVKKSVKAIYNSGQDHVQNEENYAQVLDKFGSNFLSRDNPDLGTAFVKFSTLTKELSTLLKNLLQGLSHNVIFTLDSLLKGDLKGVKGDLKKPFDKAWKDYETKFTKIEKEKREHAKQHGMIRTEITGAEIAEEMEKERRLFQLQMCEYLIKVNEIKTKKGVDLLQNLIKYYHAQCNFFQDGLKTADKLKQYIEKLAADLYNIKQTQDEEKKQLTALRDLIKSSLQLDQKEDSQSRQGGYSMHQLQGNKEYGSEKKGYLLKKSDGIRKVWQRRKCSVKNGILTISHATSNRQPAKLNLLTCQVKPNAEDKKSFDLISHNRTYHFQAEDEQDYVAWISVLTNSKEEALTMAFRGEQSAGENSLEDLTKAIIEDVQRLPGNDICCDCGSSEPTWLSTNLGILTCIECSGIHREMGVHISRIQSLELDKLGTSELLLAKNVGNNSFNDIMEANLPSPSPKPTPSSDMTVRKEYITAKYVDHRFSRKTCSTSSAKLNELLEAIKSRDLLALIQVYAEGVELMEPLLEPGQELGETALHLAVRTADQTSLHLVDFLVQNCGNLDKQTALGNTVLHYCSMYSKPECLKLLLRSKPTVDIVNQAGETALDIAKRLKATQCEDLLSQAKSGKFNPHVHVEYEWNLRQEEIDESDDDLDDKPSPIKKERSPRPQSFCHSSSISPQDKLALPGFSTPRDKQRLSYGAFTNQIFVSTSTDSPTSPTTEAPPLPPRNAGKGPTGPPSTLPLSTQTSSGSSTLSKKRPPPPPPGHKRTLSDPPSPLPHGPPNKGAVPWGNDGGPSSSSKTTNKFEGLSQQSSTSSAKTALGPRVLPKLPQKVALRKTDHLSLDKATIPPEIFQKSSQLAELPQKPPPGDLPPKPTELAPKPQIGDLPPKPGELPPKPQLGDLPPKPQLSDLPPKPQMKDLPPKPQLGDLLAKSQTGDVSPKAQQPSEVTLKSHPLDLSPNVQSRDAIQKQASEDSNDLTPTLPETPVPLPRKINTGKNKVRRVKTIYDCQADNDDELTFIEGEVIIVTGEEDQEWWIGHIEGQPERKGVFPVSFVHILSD
Sequence of ADP-ribosylation factor GTPase-activating protein 1 (Q62848 whole entry): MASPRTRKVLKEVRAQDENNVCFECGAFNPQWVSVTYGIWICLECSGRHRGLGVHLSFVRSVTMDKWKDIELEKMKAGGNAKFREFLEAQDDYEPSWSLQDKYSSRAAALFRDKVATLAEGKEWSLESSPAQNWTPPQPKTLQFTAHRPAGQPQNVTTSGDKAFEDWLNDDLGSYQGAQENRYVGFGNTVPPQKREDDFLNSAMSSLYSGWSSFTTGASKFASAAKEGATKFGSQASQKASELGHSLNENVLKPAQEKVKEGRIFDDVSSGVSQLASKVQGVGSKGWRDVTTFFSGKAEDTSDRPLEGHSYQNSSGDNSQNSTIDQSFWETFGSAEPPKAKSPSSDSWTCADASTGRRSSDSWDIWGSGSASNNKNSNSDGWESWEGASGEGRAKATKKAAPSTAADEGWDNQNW
Sequence of DNA dC->dU-editing enzyme APOBEC-3G (Q9HC16 whole entry): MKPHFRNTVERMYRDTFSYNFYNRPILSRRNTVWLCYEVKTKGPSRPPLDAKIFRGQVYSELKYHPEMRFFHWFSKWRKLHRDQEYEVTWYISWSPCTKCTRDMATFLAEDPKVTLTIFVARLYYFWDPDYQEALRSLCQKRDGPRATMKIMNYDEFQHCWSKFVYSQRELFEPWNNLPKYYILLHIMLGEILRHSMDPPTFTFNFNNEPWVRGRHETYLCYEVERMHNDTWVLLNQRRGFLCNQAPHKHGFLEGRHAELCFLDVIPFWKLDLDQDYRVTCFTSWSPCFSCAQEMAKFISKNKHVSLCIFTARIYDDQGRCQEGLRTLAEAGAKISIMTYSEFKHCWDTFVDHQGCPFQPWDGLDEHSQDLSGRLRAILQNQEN
Sequence of DNA damage-inducible transcript 3 protein (P35639 whole entry): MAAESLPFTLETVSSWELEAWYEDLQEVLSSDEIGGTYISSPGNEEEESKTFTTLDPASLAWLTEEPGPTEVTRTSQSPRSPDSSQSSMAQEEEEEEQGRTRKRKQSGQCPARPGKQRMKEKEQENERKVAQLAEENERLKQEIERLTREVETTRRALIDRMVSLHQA
Sequence of X-box-binding protein 1 (P17861 whole entry): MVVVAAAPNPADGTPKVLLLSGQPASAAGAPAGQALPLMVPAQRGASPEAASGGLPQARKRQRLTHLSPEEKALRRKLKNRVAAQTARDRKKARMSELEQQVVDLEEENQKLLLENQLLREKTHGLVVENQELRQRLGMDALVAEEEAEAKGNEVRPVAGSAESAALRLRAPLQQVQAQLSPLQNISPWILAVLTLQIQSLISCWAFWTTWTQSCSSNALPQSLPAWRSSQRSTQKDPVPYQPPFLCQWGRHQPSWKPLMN

SMILES: Cc1ccc(N(CC(=O)NCCc2ccc(Cl)cc2)S(=O)(=O)c2c(C)noc2C)cc1
- IC50 [1]: 0.585 µM (active)
- IC50 [2]: 2.87 µM (active)
- IC50 [3]: > 49.8 µM (inactive)
- IC50 (CHO-K1): > 66.2 µM (inactive)

SMILES: Cn1c(=O)n(CCOc2ccc(Cl)cc2Cl)c2ccccc21
- IC50 [4]: 18.4 µM (inactive)
- IC50 [5]: 18.4 µM (inactive)
- Absolute IC50 (XBP1) (X-box-binding protein 1): 10 µM
- Absolute IC50 (CHOP) [6]: 10 µM

SMILES: O=[N+]([O-])c1ccccc1/C=N/NC1=NCCN1
- IC50 [7]: 6.95 µM (active)
- IC50 [8]: 5.96 µM (active)
